The values that follow come from patent US20250188040A1, “PHARMACEUTICAL COMPOSITIONS COMPRISING WRN HELICASE INHIBITORS” (Vividion Therapeutics, Inc., priority 2022, published 2025).

Assay [1] addresses hWRN(519-1227)_C-H3CV-GFP-10His (Homo sapiens, UniProt Q14191). Nature of the assay: Helicase Assay for WRN Inhibition (ATP-dependent, fluorescence based).
A further assay deals with SW480 cells. Nature of the assay: Cell growth assay (CellTiter-Glo 2.0), SW480 MSS cell line. Conditions: Homo sapiens, SW480, 120 h, read-out: Cell Growth Inhibition GI50 SW480. Background: ATP-based viability assays read luminescence as a measure of living cells.
The target of the next assay is T1, WRN C727 (Homo sapiens, UniProt Q14191).
T1 construct: endogenous in cells; host or cells: OCI-AML2
Nature of the assay: Target engagement, in vitro (lysate), OCI-AML2. The assay is classed as binding. The conditions noted are these: read-out: OCI-AML2 WRN C727 TE50 in vitro (lysate). The procedure, abridged:
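OCI-AML2 intact cells or lysates dosed with compound, then a cysteine-reactive probe; after trypsin digestion, probe-labelled peptides were streptavidin-enriched and quantified by nano-LC parallel reaction monitoring MS. Engagement (%) relative to DMSO controls.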

The test system of another assay is HCT 116 cells. Description: Cell growth assay (CellTiter-Glo 2.0), HCT 116 MSI-H cell line. Conditions: Homo sapiens, HCT-116, 120 h, read-out: Cell Growth Inhibition GI50 HCT-116.
The mark [2] stands for this setting: WRN Helicase IC50, 30 min preincubation with ATP, 30 min reaction.

pIC50: −log10 of the molar value. Read-outs that look alike come from different tables or passages of the source.

T1 sequence (Q14191 whole entry): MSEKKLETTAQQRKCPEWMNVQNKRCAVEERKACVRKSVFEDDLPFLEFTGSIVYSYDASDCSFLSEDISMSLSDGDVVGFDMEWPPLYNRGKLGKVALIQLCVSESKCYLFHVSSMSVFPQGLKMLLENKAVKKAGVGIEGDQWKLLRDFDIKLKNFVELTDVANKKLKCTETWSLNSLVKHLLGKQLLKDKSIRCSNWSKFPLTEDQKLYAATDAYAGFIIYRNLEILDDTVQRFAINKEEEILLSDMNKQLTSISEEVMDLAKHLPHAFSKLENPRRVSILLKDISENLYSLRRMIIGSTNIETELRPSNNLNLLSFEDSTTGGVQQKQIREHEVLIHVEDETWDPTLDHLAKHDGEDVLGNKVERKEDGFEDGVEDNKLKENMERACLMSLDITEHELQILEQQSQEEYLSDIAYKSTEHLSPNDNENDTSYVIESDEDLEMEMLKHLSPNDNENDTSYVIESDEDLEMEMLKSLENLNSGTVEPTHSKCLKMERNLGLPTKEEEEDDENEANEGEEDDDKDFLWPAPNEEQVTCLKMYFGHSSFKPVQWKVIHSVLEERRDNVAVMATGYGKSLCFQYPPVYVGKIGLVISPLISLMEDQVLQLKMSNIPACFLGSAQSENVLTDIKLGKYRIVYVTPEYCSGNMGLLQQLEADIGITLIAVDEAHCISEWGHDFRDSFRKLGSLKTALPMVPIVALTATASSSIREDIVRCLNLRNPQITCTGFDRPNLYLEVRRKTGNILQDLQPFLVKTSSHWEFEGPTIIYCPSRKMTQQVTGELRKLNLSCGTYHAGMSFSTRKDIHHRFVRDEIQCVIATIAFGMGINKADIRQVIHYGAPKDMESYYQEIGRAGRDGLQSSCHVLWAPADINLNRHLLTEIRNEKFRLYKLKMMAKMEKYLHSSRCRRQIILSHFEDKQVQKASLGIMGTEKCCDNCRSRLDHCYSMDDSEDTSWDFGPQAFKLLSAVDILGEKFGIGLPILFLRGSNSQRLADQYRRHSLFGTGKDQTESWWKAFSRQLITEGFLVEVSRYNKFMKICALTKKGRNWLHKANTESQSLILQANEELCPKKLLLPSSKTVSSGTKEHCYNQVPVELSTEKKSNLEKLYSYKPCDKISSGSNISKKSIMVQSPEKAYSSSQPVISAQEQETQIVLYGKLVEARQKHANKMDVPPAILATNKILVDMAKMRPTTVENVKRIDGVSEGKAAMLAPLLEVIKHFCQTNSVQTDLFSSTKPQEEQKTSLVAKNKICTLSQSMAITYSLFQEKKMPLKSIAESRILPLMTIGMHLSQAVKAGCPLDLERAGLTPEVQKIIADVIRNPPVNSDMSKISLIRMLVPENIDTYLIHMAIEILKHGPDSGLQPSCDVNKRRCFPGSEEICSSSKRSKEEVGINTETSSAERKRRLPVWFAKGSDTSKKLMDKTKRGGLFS
Chain of hWRN(519-1227)_C-H3CV-GFP-10His (Q14191 519-1227): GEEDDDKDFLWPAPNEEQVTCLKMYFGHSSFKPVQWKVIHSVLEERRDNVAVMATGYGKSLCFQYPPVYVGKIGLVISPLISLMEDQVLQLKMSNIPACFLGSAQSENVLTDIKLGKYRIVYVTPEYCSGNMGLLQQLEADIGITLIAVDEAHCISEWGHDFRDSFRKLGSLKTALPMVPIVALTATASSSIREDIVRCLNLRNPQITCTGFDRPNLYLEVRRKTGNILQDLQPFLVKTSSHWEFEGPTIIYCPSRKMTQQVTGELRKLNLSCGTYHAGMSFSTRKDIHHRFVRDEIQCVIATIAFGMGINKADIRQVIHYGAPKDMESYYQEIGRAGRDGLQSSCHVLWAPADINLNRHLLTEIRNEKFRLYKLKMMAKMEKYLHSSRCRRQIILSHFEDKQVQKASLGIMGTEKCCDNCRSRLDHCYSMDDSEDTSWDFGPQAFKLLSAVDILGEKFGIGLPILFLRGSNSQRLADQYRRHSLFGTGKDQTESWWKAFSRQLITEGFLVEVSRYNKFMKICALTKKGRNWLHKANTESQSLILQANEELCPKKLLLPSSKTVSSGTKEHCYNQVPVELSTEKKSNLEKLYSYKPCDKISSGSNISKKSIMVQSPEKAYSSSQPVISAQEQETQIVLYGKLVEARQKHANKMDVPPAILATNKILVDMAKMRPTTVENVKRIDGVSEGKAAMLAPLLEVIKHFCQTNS
Description for HCT 116 cells: The effects of compound on cellular viability were determined using the CellTiter-Glo® 2.0 Luminescent Cell Viability Assay (Promega, Madison, WI).
SW480 cells were seeded at 1,000 cells per well in Eagle's Minimum Essential Medium (EMEM) with 10% FBS. Both cell lines were seeded in a volume of 50 μL medium per well. […] The concentration range was adjusted as needed for compounds of different potencies. The cells treated with compounds were incubated for 5 days at 37° C. in 5% CO2. […] The plate was then read on a Clariostar plate reader (BMG Labtech, Cary, NC) in luminescence mode. The previously measured baseline cell viability was subtracted from the luminescence value of each well, and cell viability (% of DMSO) was plotted as a function of log compound concentration. The EC50 was then calculated for each compound using Dotmatics Software (San Diego, CA).

Take `CC(C)(C)c1ncc(C(=O)N[C@H](/C=C/S(C)(=O)=O)CC(F)F)c(Oc2ccccc2)n1` [Example 73, (S,E)-2-(tert-butyl)-N-(5,5-difluoro-1-(methylsulfonyl)pent-1-en-3-yl)-4-phenoxypyrimidine-5-carboxamide]: the pIC50 was 6.82 in assay [1] (setting [2]) and 6.33 on WRN C727. The GI50 is 16000 nM in the assay on SW480 cells and 300 nM in the assay with HCT 116 cells.
`CS(=O)(=O)/C=C/[C@@H](NC(=O)c1cnc(C2CCCC2)nc1Oc1ccccc1)C1CCC1` [Example 9, (S,E)-N-(1-cyclobutyl-3-(methylsulfonyl)allyl)-2-cyclopentyl-4-phenoxypyrimidine-5-carboxamide]: the pIC50 was 6.80 in assay [1] (setting [2]) and 6.51 at WRN C727. Also, the GI50 was 15000 nM in the assay on SW480 cells and 43 nM with HCT 116 cells.
Take `CC(C)(C)c1ncc(C(=O)N[C@H](/C=C/S(C)(=O)=O)C2CCOCC2)c(Oc2ccccc2)n1` [Example 70, (S,E)-2-(tert-butyl)-N-(3-(methylsulfonyl)-1-(tetrahydro-2H-pyran-4-yl)allyl)-4-phenoxypyrimidine-5-carboxamide]: the pIC50 in assay [1] (setting [2]) is 6.62; on WRN C727, 6.10. The GI50 was > 58700 nM in the assay on SW480 cells and 130 nM in the assay on HCT 116 cells.
On the same counts, the results for `C[C@@H](/C=C/S(C)(=O)=O)NC(=O)c1cnc(C2(C)CC2)nc1Oc1ccccc1` [Example 38, (S,E)-2-(1-methylcyclopropyl)-N-(4-(methylsulfonyl)but-3-en-2-yl)-4-phenoxypyrimidine-5-carboxamide] are 6.36, 6.10, 11700 nM and 157 nM.
On the same counts, the results for `CC(C)N(C)c1ncc(C(=O)N[C@H](/C=C/S(C)(=O)=O)C2CC2)c(Oc2ccccc2)n1` [Example 186, (S,E)-N-(1-cyclopropyl-3-(methylsulfonyl)allyl)-2-(isopropyl(methyl)amino)-4-phenoxypyrimidine-5-carboxamide] are 6.70, 6.38, 3300 nM and 19.5 nM.
As to `CC(F)(F)c1cc(Oc2ccccc2)c(C(=O)N[C@H](/C=C/S(C)(=O)=O)C2CC2)cn1` [Example 231, (S,E)-N-(1-cyclopropyl-3-(methylsulfonyl)allyl)-6-(1,1-difluoroethyl)-4-phenoxynicotinamide], the figures for the pIC50 (in assay [1] (setting [2]); on WRN C727) were 6.68 and 6.38, respectively. Also, the results for the GI50 in the assay on SW480 cells and with HCT 116 cells were 61000 nM and 38 nM, respectively.
For `C[C@@H]1CCCN1c1ncc(C(=O)N[C@@H](C)/C=C/S(C)(=O)=O)c(Oc2ccccc2)n1` [Example 176, 2-((R)-2-methylpyrrolidin-1-yl)-N—((S,E)-4-(methylsulfonyl)but-3-en-2-yl)-4-phenoxypyrimidine-5-carboxamide], the pIC50 in assay [1] (setting [2]) was 5.80; at WRN C727, 5.78. Besides, the GI50 with SW480 cells was found to be 13000 nM; in the assay on HCT 116 cells, 440 nM.
As to `CS(=O)(=O)/C=C/[C@H](CC1CC1)NC(=O)c1cnc(C2CC2)nc1Oc1ccccc1` [Example 28, (S,E)-2-cyclopropyl-N-(1-cyclopropyl-4-(methylsulfonyl)but-3-en-2-yl)-4-phenoxypyrimidine-5-carboxamide], the pIC50 in assay [1] (setting [2]) is 5.82; at WRN C727 it was 5.17. The results for the GI50 in the assay with SW480 cells and in the assay on HCT 116 cells were 37200 nM and 606 nM, respectively.
`CO[C@H](C)[C@@H](/C=C/S(C)(=O)=O)NC(=O)c1cnc(C(C)(C)C)nc1Oc1ccccc1` [Example 69, 2-(tert-butyl)-N-((3R,4R,E)-4-methoxy-1-(methylsulfonyl)pent-1-en-3-yl)-4-phenoxypyrimidine-5-carboxamide]: the pIC50 in assay [1] (setting [2]) is 5.47; on WRN C727, 4.96. Further, the figures for the GI50 with SW480 cells and in the assay with HCT 116 cells were 51600 nM and 1220 nM, respectively.
On the same counts, the results for `C[C@@H](/C=C/S(C)(=O)=O)NC(=O)c1cnc(C2CCCC2)nc1OC1CCCCCC1` [Example 128, (S,E)-4-(cycloheptyloxy)-2-cyclopentyl-N-(4-(methylsulfonyl)but-3-en-2-yl)pyrimidine-5-carboxamide] are 5.23, 4.60, 4200 nM and 2500 nM.
Turning to `CC(C)(C)c1ncc(C(=O)N[C@H](/C=C/S(C)(=O)=O)C2CCC(F)(F)CC2)c(Oc2ccccc2)n1` [Example 72, (S,E)-2-(tert-butyl)-N-(1-(4,4-difluorocyclohexyl)-3-(methylsulfonyl)allyl)-4-phenoxypyrimidine-5-carboxamide], the pIC50 was 6.80 in assay [1] (setting [2]) and 6.22 at WRN C727. For the same compound, the GI50 in the assay with SW480 cells came to 45200 nM; with HCT 116 cells, 46.7 nM.
For the compound `C[C@@H]1CC[C@H](C)N1c1ncc(C(=O)N[C@@H](C)/C=C/S(C)(=O)=O)c(Oc2ccccc2)n1` [Example 171, 2-((2R,5S)-2,5-dimethylpyrrolidin-1-yl)-N—((S,E)-4-(methylsulfonyl)but-3-en-2-yl)-4-phenoxypyrimidine-5-carboxamide], the pIC50 in assay [1] (setting [2]) was 5.93; on WRN C727 it was 5.35. For the same compound, the GI50 with SW480 cells was determined as 8100 nM; with HCT 116 cells it was 434 nM.
In the case of `C[C@@H](/C=C/S(C)(=O)=O)NC(=O)c1cnc(C2(c3ccccc3)CC2)nc1Oc1ccccc1` [Example 42, (S,E)-N-(4-(methylsulfonyl)but-3-en-2-yl)-4-phenoxy-2-(1-phenylcyclopropyl)pyrimidine-5-carboxamide], the values for the pIC50 (in assay [1] (setting [2]); on WRN C727) were 5.77 and 5.35, respectively. Besides, the GI50 amounted to 5200 nM with SW480 cells and 355 nM in the assay on HCT 116 cells.
Taken in the same sequence, the figures for `Cn1ccc2cc(C(=O)N[C@H](/C=C/S(C)(=O)=O)C3CC3)c(Oc3ccccc3)nc21` [Example 250, (S,E)-N-(1-cyclopropyl-3-(methylsulfonyl)allyl)-1-methyl-6-phenoxy-1H-pyrrolo[2,3-b]pyridine-5-carboxamide] were 5.35, 6.21, 44900 nM and 1140 nM.
On to `C[C@@H](/C=C/S(C)(=O)=O)NC(=O)c1cnc(C(C)(C)O)nc1Oc1ccccc1` [Example 218, (S,E)-2-(2-hydroxypropan-2-yl)-N-(4-(methylsulfonyl)but-3-en-2-yl)-4-phenoxypyrimidine-5-carboxamide], for which the values for the pIC50 (in assay [1] (setting [2]); at WRN C727) were 5.37 and 4.77, respectively. In addition, the concentration for 50% growth inhibition (GI50) in the assay with SW480 cells was > 29300 nM; in the assay with HCT 116 cells it was 1380 nM.
Turning to `C[C@@H](/C=C/S(C)(=O)=O)NC(=O)c1ccc(C2CCCC2)cc1Oc1ccccc1` [Example 286, (S,E)-4-cyclopentyl-N-(4-(methylsulfonyl)but-3-en-2-yl)-2-phenoxybenzamide], the values for the pIC50 (in assay [1] (setting [2]); on WRN C727) were 5.85 and 5.45, respectively. The results for the GI50 in the assay on SW480 cells and in the assay with HCT 116 cells were > 10000 nM and 600 nM, respectively.
Taken in the same sequence, the figures for `C[C@@H](/C=C/S(C)(=O)=O)NC(=O)c1cnc(CC2(C)CC2)nc1Oc1ccccc1` [Example 40, (S,E)-2-((1-methylcyclopropyl)methyl)-N-(4-(methylsulfonyl)but-3-en-2-yl)-4-phenoxypyrimidine-5-carboxamide] were 5.57, 5.46, 49000 nM and 1200 nM.
For `CC(C)(C)c1ncc(C(=O)N[C@H](/C=C\S(C)(=O)=O)Cc2ccccc2)c(Oc2ccccc2)n1` (single isomer, unassigned) [Example 61], the pIC50 is 5.46 in assay [1] (setting [2]) and < 4.00 at WRN C727. Also, the GI50 with SW480 cells came to 7500 nM; in the assay with HCT 116 cells, 1300 nM.
Take `CS(=O)(=O)/C=C/CNC(=O)c1cnc(C2CCCC2)nc1Oc1ccc(F)cc1` [Example 112, (E)-2-cyclopentyl-4-(4-fluorophenoxy)-N-(3-(methylsulfonyl)allyl)pyrimidine-5-carboxamide]: the pIC50 in assay [1] (setting [2]) was 5.34; at WRN C727 it was 5.13. Moreover, the GI50 in the assay with SW480 cells was > 10000 nM; in the assay with HCT 116 cells it was 4800 nM.
As to `C[C@@H]1CC[C@H](c2ncc(C(=O)N[C@@H](C)/C=C/S(C)(=O)=O)c(Oc3ccccc3)n2)C1` (racemic) [Example 215], the figures for the pIC50 (in assay [1] (setting [2]); on WRN C727) were 5.66 and 5.02, respectively. The GI50 in the assay with SW480 cells is 8200 nM; in the assay with HCT 116 cells it was 1400 nM.
For `COC(=O)C=C1CN(C(=O)c2cnc(C(C)(C)C)nc2Oc2ccccc2)C1` [Example 191, methyl 2-(1-(2-(tert-butyl)-4-phenoxypyrimidine-5-carbonyl)azetidin-3-ylidene)acetate], the pIC50 in assay [1] was 6.04; on WRN C727, 5.66. Also, the results for the GI50 in the assay on SW480 cells and in the assay on HCT 116 cells were 7400 nM and 260 nM, respectively.
`C[C@@H](/C=C/S(C)(=O)=O)NC(=O)c1cnc(C2CCCC2)nc1Oc1cccnc1` [Example 125, (S,E)-2-cyclopentyl-N-(4-(methylsulfonyl)but-3-en-2-yl)-4-(pyridin-3-yloxy)pyrimidine-5-carboxamide]: the pIC50 is 4.90 in assay [1] (setting [2]) and 4.28 on WRN C727. Moreover, the GI50 with SW480 cells was > 10000 nM; with HCT 116 cells it was 3100 nM.
Turning to `C[C@@H](/C=C/S(C)(=O)=O)NC(=O)c1cnc(C2CC3(CC3)C2)nc1Oc1ccccc1` [Example 55, (S,E)-N-(4-(methylsulfonyl)but-3-en-2-yl)-4-phenoxy-2-(spiro[2.3]hexan-5-yl)pyrimidine-5-carboxamide], the pIC50 in assay [1] (setting [2]) is 6.04; at WRN C727, 5.06. For the same compound, the GI50 was 6200 nM in the assay on SW480 cells and 150 nM in the assay on HCT 116 cells.

For orientation: GI50 means the concentration that inhibits growth by half.
